≈ marks a conversion by molar mass, not a printed value. Where two headings read alike, the source gives them in different places.
Key:
[1] = system: C. difficile; experiment: MIC by broth microdilution against C. difficile strains; assay type: cell-based, Clostridioides difficile; details: for MIC: Clostridioides difficile; for Selectivity: MIC MRSA/MIC C. difficile, Table 3
[2] = system: MRSA (NRS70, NRS119); experiment: MIC against MRSA strains; assay type: cell-based, Staphylococcus aureus; details: Staphylococcus aureus
[3] = ATCC43255, ATCC 43255, ribotype 087, Table 2 (SAR^1), read-out: MIC C. difficile
[4] = ATCC43255, C. difficile ATCC 43255, read-out: MIC against C. difficile
[5] = MRSA strain NRS70, read-out: MIC against MRSA
[6] = NRS70 strain, Table 2 (SAR^1), read-out: MIC MRSA
[7] = ATCC43255, ATCC 43255, ribotype 087, Table 3 (SAR^2 and SAR^3), read-out: MIC C. difficile
[8] = NRS70 strain, Table 3 (SAR^2 and SAR^3), read-out: MIC MRSA
[9] = ATCC43255, C. difficile ATCC43255, FIG. 2 legend, read-out: MIC of positive controls

Row | Structure (SMILES) | MIC [1, 3] [µg/mL] | MIC [1, 4] [µg/mL] | MIC [2, 5] [µg/mL] | MIC [2, 6] [µg/mL] | MIC [1, 7] [µg/mL] | Selectivity [1] | MIC [2, 8] [µg/mL] | MIC [1, 9] [µg/mL]
1 | O=C(Nc1nccs1)c1ccnc(-c2ccc(Cl)c(Cl)c2)c1 [Compound 16, 2-(3,4-Dichlorophenyl)-N-(thiazol-2-yl)isonicotinamide] | ≥ 128 | ≥ 64 | ≥ 64 | ≥ 256 |  |  |  | 
2 | O=C(Nc1ncco1)c1ccnc(-c2ccc(Cl)c(Cl)c2)n1 [Compound 83, 2-(3,4-Dichlorophenyl)-N-(oxazol-2-yl)pyrimidine-4-carboxamide] |  |  |  |  | 1 (≈ 2.98 µM) | 0.5 | 0.5 (≈ 1.49 µM) | 
3 | CCOC(=O)c1coc(NC(=O)c2ccnc(-c3ccc(Cl)c(Cl)c3)c2)n1 [Compound 15, Ethyl 2-(2-(3,4-dichlorophenyl)isonicotinamido)oxazole-4-carboxylate] | 0.125 (≈ 0.308 µM) |  |  | 1 (≈ 2.46 µM) |  |  |  | 
4 | O=C(Nc1ncco1)c1ccnc(-c2cccc(OCc3ccccc3)c2)c1 [Compound 57, 2-(3-(Benzyloxy)phenyl)-N-(oxazol-2-yl)isonicotinamide] |  |  |  |  | 0.5 (≈ 1.35 µM) | 2 | 1 (≈ 2.69 µM) | 
5 | O=C(Nc1ncco1)c1ccnc(-c2ccccc2)c1 [Compound 60, N-(Oxazol-2-yl)-2-phenylisonicotinamide] |  |  |  |  | 8 (≈ 30.2 µM) | 1 | 8 (≈ 30.2 µM) | 
6 | O=C(Nc1ncc(C(=O)O)o1)c1ccnc(-c2ccc(Cl)c(Cl)c2)c1 [Compound 24, 2-(2-(3,4-Dichlorophenyl)isonicotinamido)oxazole-5-carboxylic acid] | 128 (≈ 338 µM) |  |  | 64 (≈ 169 µM) |  |  |  | 
7 | O=C(Nc1ncco1)c1ccnc(-c2ccc([N+](=O)[O-])cc2)c1 [Compound 49, 2-(4-Nitrophenyl)-N-(oxazol-2-yl)isonicotinamide] |  |  |  |  | 1 (≈ 3.22 µM) | 64 | 64 (≈ 206 µM) | 
8 | O=C(Nc1ncco1)c1ccnc(-c2ccc(OCc3ccccc3)cc2)c1 [Compound 56, 2-(4-(Benzyloxy)phenyl)-N-(oxazol-2-yl)isonicotinamide] |  |  |  |  | 4 (≈ 10.8 µM) | 2 | 8 (≈ 21.5 µM) | 
9 | O=C(Nc1ncco1)c1ccnc(-c2cccc(Cl)c2)n1 [Compound 84, 2-(3-Chlorophenyl)-N-(oxazol-2-yl)pyrimidine-4-carboxamide] |  |  |  |  | 4 (≈ 13.3 µM) | 1 | 4 (≈ 13.3 µM) | 
10 | O=C(Nc1ncco1)c1cc(-c2ccc(Cl)cc2)ccn1 [Compound 88, 4-(4-Chlorophenyl)-N-(oxazol-2-yl)picolinamide] |  |  |  |  | 4 (≈ 13.3 µM) | 32 | 128 (≈ 427 µM) | 
11 | CC(C)Oc1ccc(-c2cc(C(=O)Nc3ncco3)ccn2)cc1 [Compound 52, 2-(4-Isopropoxyphenyl)-N-(oxazol-2-yl)isonicotinamide] |  |  |  |  | 2 (≈ 6.19 µM) | 2 | 4 (≈ 12.4 µM) | 
12 | COc1ccc(-c2cc(C(=O)Nc3ncco3)ccn2)cc1Cl [Compound 54, 2-(3-Chloro-4-methoxyphenyl)-N-(oxazol-2-yl)isonicotinamide] |  |  |  |  | 0.5 (≈ 1.52 µM) | 2 | 1 (≈ 3.03 µM) | 
13 | CC(C)(C)OC(=O)Nc1cccc(-c2cc(C(=O)Nc3ncco3)ccn2)c1 [Compound 59, Tert-butyl (3-(4-(oxazol-2-ylcarbamoyl)pyridin-2-yl)phenyl)carbamate] |  |  |  |  | 8 (≈ 21 µM) | 0.5 | 4 (≈ 10.5 µM) | 
14 | O=C(Nc1ncco1)c1ccnc(-c2cccc([N+](=O)[O-])c2)c1 [Compound 50, 2-(3-Nitrophenyl)-N-(oxazol-2-yl)isonicotinamide] |  |  |  |  | 2 (≈ 6.45 µM) | ≥128 | ≥ 256 | 
15 | O=C(Nc1ncco1)c1ccnc(-c2ccccc2F)c1 [Compound 38, 2-(2-Fluorophenyl)-N-(oxazol-2-yl)isonicotinamide] |  |  |  |  | 4 (≈ 14.1 µM) | 0.25 | 1 (≈ 3.53 µM) | 
16 | Cl.Cl.O=C(Nc1ncc(C(=O)N2CCNCC2)o1)c1ccnc(-c2ccc(Cl)c(Cl)c2)c1 [Compound 31, 2-(3,4-Dichlorophenyl)-N-(5-(piperazine-1-carbonyl)oxazol-2-yl)isonicotinamide dihydrochloride] | 8 |  |  | 16 |  |  |  | 
17 | CNC(=O)c1ccnc(-c2ccc(Cl)c(Cl)c2)c1 [Compound 20, 2-(3,4-Dichlorophenyl)-N-methylisonicotinamide] | 64 (≈ 228 µM) | ≥ 64 | ≥ 64 | ≥ 256 |  |  |  | 

Row | Structure (SMILES) | MIC [1, 3] [µg/mL] | MIC [1, 4] [µg/mL] | MIC [2, 5] [µg/mL] | MIC [2, 6] [µg/mL] | MIC [1, 7] [µg/mL] | Selectivity [1] | MIC [2, 8] [µg/mL] | MIC [1, 9] [µg/mL]
18 | O=C(Nc1ncco1)c1ccnc(-c2ccc(F)c(F)c2)c1F [Compound 68, 2-(3,4-Difluorophenyl)-3-fluoro-N-(oxazol-2-yl)isonicotinamide] |  |  |  |  | 2 (≈ 6.26 µM) | 2 | 4 (≈ 12.5 µM) | 
19 | O=C(Nc1ncco1)c1cncc(-c2ccc(F)c(F)c2)c1 [Compound 82, 5-(3,4-Difluorophenyl)-N-(oxazol-2-yl)nicotinamide] |  |  |  |  | 4 (≈ 13.3 µM) | 2 | 8 (≈ 26.6 µM) | 
20 | O=C(Nc1ncco1)c1ccnc(C(F)(F)F)c1 [Compound 63, N-(Oxazol-2-yl)-2-(trifluoromethyl)isonicotinamide] |  |  |  |  | 4 (≈ 15.6 µM) | 4 | 16 (≈ 62.2 µM) | 
21 | COc1ccc(-c2cc(C(=O)Nc3ncco3)ccn2)cc1OC [Compound 53, 2-(3,4-Dimethoxyphenyl)-N-(oxazol-2-yl)isonicotinamide] |  |  |  |  | 16 (≈ 49.2 µM) | 4 | 64 (≈ 197 µM) | 
22 | O=C(Nc1ncc(C(=O)N2CCOCC2)o1)c1ccnc(-c2ccc(Cl)c(Cl)c2)c1 [Compound 29, 2-(3,4-Dichlorophenyl)-N-(5-(morpholine-4-carbonyl)oxazol-2-yl)isonicotinamide] | 0.125 (≈ 0.279 µM) |  |  | 2 (≈ 4.47 µM) |  |  |  | 
23 | O=C(Nc1ncco1)c1cc(-c2ccc(F)c(F)c2)ncc1F [Compound 72, 2-(3,4-Difluorophenyl)-5-fluoro-N-(oxazol-2-yl)isonicotinamide] |  |  |  |  | 0.5 (≈ 1.57 µM) | 8 | 4 (≈ 12.5 µM) | 
24 | O=C(Nc1ncco1)c1ccnc(N2CCOCC2)c1 [Compound 62, 2-Morpholino-N-(oxazol-2-yl)isonicotinamide] |  |  |  |  | 128 (≈ 467 µM) | 1 | 128 (≈ 467 µM) | 
25 | N#Cc1cccc(-c2cc(C(=O)Nc3ncco3)ccn2)c1 [Compound 55, 2-(3-Cyanophenyl)-N-(oxazol-2-yl)isonicotinamide] |  |  |  |  | 4 (≈ 13.8 µM) | 8 | 32 (≈ 110 µM) | 
26 | O=C(Nc1ncco1)c1ccnc(-c2ccc(F)c(Cl)c2)c1F [Compound 67, 2-(3-Chloro-4-fluorophenyl)-3-fluoro-N-(oxazol-2-yl)isonicotinamide] |  |  |  |  | 1 (≈ 2.98 µM) | 1 | 1 (≈ 2.98 µM) | 
27 | O=C(Nc1ncco1)c1cc(-c2cccc(OC(F)(F)F)c2)ccn1 [Compound 96, N-(Oxazol-2-yl)-4-(3-(trifluoromethoxy)phenyl)picolinamide] |  |  |  |  | 0.5 (≈ 1.43 µM) | ≥512 | ≥ 256 | 
28 | O=C(Nc1ncc[nH]1)c1ccnc(-c2ccc(Cl)c(Cl)c2)c1 [Compound 17, 2-(3,4-Dichlorophenyl)-N-(1H-imidazol-2-yl)isonicotinamide] | ≥ 128 | ≥ 64 | ≥ 64 | ≥ 256 |  |  |  | 
29 | O=C(Nc1ncco1)c1cccc(-c2ccc(Cl)c(F)c2)n1 [Compound 78, 6-(4-Chloro-3-fluorophenyl)-N-(oxazol-2-yl)picolinamide] |  |  |  |  | ≥ 16 | ≤ 8 | 128 (≈ 403 µM) | 
30 | C#CCCCCCOC(=O)c1cnc(NC(=O)c2ccnc(-c3ccc(Cl)c(Cl)c3)c2)o1 [Compound 25, Hept-6-yn-1-yl 2-(2-(3,4-dichlorophenyl)isonicotinamido)oxazole-5-carboxylate] | 0.25 (≈ 0.529 µM) |  |  | 0.06 (≈ 0.127 µM) |  |  |  | 
31 | CC(C)(C)OC(=O)Nc1ccc(-c2cc(C(=O)Nc3ncco3)ccn2)cc1 [Compound 58, Tert-butyl (4-(4-(oxazol-2-ylcarbamoyl)pyridin-2-yl)phenyl)carbamate] |  |  |  |  | 8 (≈ 21 µM) | 1 | 8 (≈ 21 µM) | 
32 | CC(=O)NC[C@H]1CN(c2ccc(N3CCOCC3)c(F)c2)C(=O)O1 [linezolid, reference compound] |  |  |  |  |  |  |  | 2
33 | CO[C@H]1/C=C/O[C@@]2(C)Oc3c(C)c(O)c4c(O)c(c5c(nc6cc(C)ccn65)c4c3C2=O)NC(=O)/C(C)=C\C=C\[C@H](C)[C@H](O)[C@@H](C)[C@@H](O)[C@@H](C)[C@H](OC(C)=O)[C@@H]1C [rifaximin, reference compound] |  |  |  |  |  |  |  | 0.03

Reference: patent US20230271950A1, “ANTIBACTERIAL PICOLINAMIDE COMPOUNDS” (University of Notre Dame Du Lac, priority 2020, published 2023)
